Data as given in patent US10336732B2, “1-heterocyclyl isochromanyl compounds and analogs for treating CNS disorders” (Sunovion Pharmaceuticals Inc., priority 2015, dated 2019).

Test system: mice
Assay: Neuropharmacological assay (SmartCube), behavioral signature of compound-treated mice
Format: in vivo
Settings: i.p. 15 min before behavioral test, most efficacious dose(s) of 3 doses
Source text: Neurosci. […] As reported in Roberds, because psychiatric diseases generally result from disorders of cell-cell communication or circuitry, intact systems are useful in detecting improvement in disease-relevant endpoints. These endpoints are typically behavioral in nature, often requiring human observation and interpretation. To facilitate testing of multiple compounds for behavioral effects relevant to psychiatric disease, PsychoGenics, Inc. (Tarrytown, N.Y., “PGI”) developed SmartCube™, an automated system in which behaviors of compound-treated mice are captured by digital video and analyzed with computer algorithms. […] PGI Analytical Systems uses data from SmartCube™ to compare the behavioral signature of a test compound to a database of behavioral signatures obtained using a large set of diverse reference compounds. (The composition of the database as well as validation of the method is further described in Roberds). In this way, the neuropharmacological effects of a test compound can be predicted by similarity to major classes of compounds, such as antipsychotics, anxiolytics and antidepressants.
The SmartCube™ system produces an activity signature indicating the probability that the activity of the test compound at the administered dose matches a given class of neuropharmacological agents. (See, e.g., Roberds, FIGS. 2 and 3). The test compound is simultaneously compared against multiple classes of agents; thus, a separate probability is generated for each behavioral effect measured (e.g., anxiolytic activity, analgesic activity, etc.). In Table 4, these probabilities are reported for each behavioral effect measured as follows:
Provided compounds were dissolved in a mixture of Pharmasolve™ (N-methyl-2-pyrrolidone), polyethylene glycol and propylene glycol, and were injected i.p. 15 min. before the behavioral test. For each compound, injections were administered at 3 different doses. For each behavioral effect measured, results for the most efficacious dose(s) are presented.

Row | Compound | AD: ADHD (probability that behavioral signature matches class) | AG: analgesic (probability that behavioral signature matches class) | AX: anxiolytic (probability that behavioral signature matches class) | CE: cognitive enhancer (probability that behavioral signature matches class) | DP: anti-depressant (probability that behavioral signature matches class) | HA: hallucinogen (probability that behavioral signature matches class) | MS: mood stabilizer (probability that behavioral signature matches class) | PS: anti-psychotic (probability that behavioral signature matches class) | SD: sedative hypnotic (probability that behavioral signature matches class) | UN: uncharacterized CNS activity (probability that behavioral signature matches class) | XG: anxiogenic (probability that behavioral signature matches class)
1 | N#Cc1ccc2c(c1)CCO[C@H]2[C@H]1CCCN1 [Compound I-45, (R)-1-((R)-pyrrolidin-2-yl)isochroman-6-carbonitrile] | + (LOQ ≤ + <5%) | ++ (5% ≤ ++ <25%) | +++ (25% ≤ +++ <50%) | + (LOQ ≤ + <5%) | ++ (5% ≤ ++ <25%) | + (LOQ ≤ + <5%) | + (LOQ ≤ + <5%) | + (LOQ ≤ + <5%) | + (LOQ ≤ + <5%) | + (LOQ ≤ + <5%) | + (LOQ ≤ + <5%)
2 | Fc1ccc2c(c1)CCO[C@H]2[C@H]1CCCN1 [Compound I-12, (R)-2-((R)-6-fluoroisochroman-1-yl)pyrrolidine] | + (LOQ ≤ + <5%) | ++ (5% ≤ ++ <25%) | ++ (5% ≤ ++ <25%) | + (LOQ ≤ + <5%) | ++ (5% ≤ ++ <25%) | + (LOQ ≤ + <5%) | + (LOQ ≤ + <5%) | ++ (5% ≤ ++ <25%) | + (LOQ ≤ + <5%) | ++++ (50% ≤ ++++) | + (LOQ ≤ + <5%)
3 | Fc1ccc2c(c1)[C@H]([C@@H]1CCN1)OCC2 [Compound I-86, (S)-2-((R)-7-fluoroisochroman-1-yl)azetidine] | + (LOQ ≤ + <5%) | +++ (25% ≤ +++ <50%) | +++ (25% ≤ +++ <50%) | ++ (5% ≤ ++ <25%) | ++ (5% ≤ ++ <25%) | + (LOQ ≤ + <5%) | + (LOQ ≤ + <5%) | +++ (25% ≤ +++ <50%) | ++ (5% ≤ ++ <25%) | ++ (5% ≤ ++ <25%) | + (LOQ ≤ + <5%)
4 | Fc1ccc2c(c1)[C@H]([C@H]1CCCN1)OCCC2 [Compound I-109, (R)-2-((R)-8-fluoro-1,3,4,5-tetrahydrobenzo[c]oxepin-1-yl)pyrrolidine] | + (LOQ ≤ + <5%) | ++ (5% ≤ ++ <25%) | ++ (5% ≤ ++ <25%) | + (LOQ ≤ + <5%) | +++ (25% ≤ +++ <50%) | + (LOQ ≤ + <5%) | ++ (5% ≤ ++ <25%) | ++ (5% ≤ ++ <25%) | ++ (5% ≤ ++ <25%) | ++ (5% ≤ ++ <25%) | + (LOQ ≤ + <5%)
5 | Cc1cccc2c1[C@@H]([C@@H]1CCCN1)OCCC2 [Compound I-101, (S)-2-((S)-9-methyl-1,3,4,5-tetrahydrobenzo[c]oxepin-1-yl)pyrrolidine] | + (LOQ ≤ + <5%) | + (LOQ ≤ + <5%) | ++ (5% ≤ ++ <25%) | + (LOQ ≤ + <5%) | ++ (5% ≤ ++ <25%) | + (LOQ ≤ + <5%) | + (LOQ ≤ + <5%) | + (LOQ ≤ + <5%) | + (LOQ ≤ + <5%) | + (LOQ ≤ + <5%) | + (LOQ ≤ + <5%)
6 | Cc1cccc2c1[C@H]([C@H]1CCCN1)OCCC2 [Compound I-103, (R)-2-((R)-9-methyl-1,3,4,5-tetrahydrobenzo[c]oxepin-1-yl)pyrrolidine] | + (LOQ ≤ + <5%) | ++ (5% ≤ ++ <25%) | ++ (5% ≤ ++ <25%) | + (LOQ ≤ + <5%) | ++ (5% ≤ ++ <25%) | + (LOQ ≤ + <5%) | + (LOQ ≤ + <5%) | + (LOQ ≤ + <5%) | ++ (5% ≤ ++ <25%) | +++ (25% ≤ +++ <50%) | + (LOQ ≤ + <5%)
7 | Fc1cccc2c1[C@@H]([C@H]1CCCN1)OCC2 [Compound I-3, (R)-2-((S)-8-fluoroisochroman-1-yl)pyrrolidine] | + (LOQ ≤ + <5%) | ++ (5% ≤ ++ <25%) | ++ (5% ≤ ++ <25%) | ++ (5% ≤ ++ <25%) | +++ (25% ≤ +++ <50%) | + (LOQ ≤ + <5%) | ++ (5% ≤ ++ <25%) | ++ (5% ≤ ++ <25%) | ++ (5% ≤ ++ <25%) | +++ (25% ≤ +++ <50%) | + (LOQ ≤ + <5%)
8 | COc1cccc2c1[C@H]([C@H]1CCCN1)OCC2 [Compound I-49, (R)-2-((R)-8-methoxyisochroman-1-yl)pyrrolidine] | + (LOQ ≤ + <5%) | ++ (5% ≤ ++ <25%) | ++ (5% ≤ ++ <25%) | ++ (5% ≤ ++ <25%) | ++ (5% ≤ ++ <25%) | + (LOQ ≤ + <5%) | ++ (5% ≤ ++ <25%) | ++ (5% ≤ ++ <25%) | ++ (5% ≤ ++ <25%) | ++ (5% ≤ ++ <25%) | + (LOQ ≤ + <5%)
9 | Clc1ccc2c(c1)CCO[C@H]2[C@@H]1CCCN1 [Compound I-34, (S)-2-((R)-6-chloroisochroman-1-yl)pyrrolidine] | + (LOQ ≤ + <5%) | ++ (5% ≤ ++ <25%) | ++ (5% ≤ ++ <25%) | ++ (5% ≤ ++ <25%) | ++ (5% ≤ ++ <25%) | + (LOQ ≤ + <5%) | + (LOQ ≤ + <5%) | ++ (5% ≤ ++ <25%) | ++ (5% ≤ ++ <25%) | +++ (25% ≤ +++ <50%) | + (LOQ ≤ + <5%)
10 | CN1CCC[C@H]1[C@@H]1OCCc2cc(F)ccc21 [Compound I-69, (S)-2-((R)-6-fluoroisochroman-1-yl)-1-methylpyrrolidine] | + (LOQ ≤ + <5%) | +++ (25% ≤ +++ <50%) | ++ (5% ≤ ++ <25%) | ++ (5% ≤ ++ <25%) | ++ (5% ≤ ++ <25%) | + (LOQ ≤ + <5%) | + (LOQ ≤ + <5%) | ++ (5% ≤ ++ <25%) | + (LOQ ≤ + <5%) | + (LOQ ≤ + <5%) | + (LOQ ≤ + <5%)
